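Protocol summary: plate cells (96-well), add compound at 5 concentrations, incubate 48 h, interpolate endpoints linearly. Definition used: TGI = concentration required for complete inhibition of growth.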
Key:
Assay in all cases: growth of human tumour cells (NCI), 48 h
786-0 renal = system: 786-0 renal
A498 renal = system: A498 renal
A549 NSCLC = system: A549 NSCLC
ACHN renal = system: ACHN renal
BT-549 breast = system: BT-549 breast
CAKI-1 renal = system: CAKI-1 renal
CCRF-CEM leukemia = system: CCRF-CEM leukemia
COLO 205 colon = system: COLO 205 colon
DU-145 prostate = system: DU-145 prostate
EKVX NSCLC = system: EKVX NSCLC
HCC-2998 colon = system: HCC-2998 colon
HCT-116 colon = system: HCT-116 colon
HCT-15 colon = system: HCT-15 colon
HL-60(TB) leukemia = system: HL-60(TB) leukemia
HOP-62 NSCLC = system: HOP-62 NSCLC
HOP-92 NSCLC = system: HOP-92 NSCLC
HS 578T breast = system: HS 578T breast
HT29 colon = system: HT29 colon
IGROV1 ovarian = system: IGROV1 ovarian
K-562 leukemia = system: K-562 leukemia
KM12 colon = system: KM12 colon
M14 melanoma = system: M14 melanoma
MALME-3M melanoma = system: MALME-3M melanoma
MCF7 breast = system: MCF7 breast
MDA-MB-231 breast = system: MDA-MB-231 breast
MDA-MB-435 = system: MDA-MB-435
MDA-N = system: MDA-N
MOLT-4 leukemia = system: MOLT-4 leukemia
NCI-H226 lung = system: NCI-H226 lung
NCI-H23 lung = system: NCI-H23 lung
NCI-H460 lung = system: NCI-H460 lung
NCI-H522 lung = system: NCI-H522 lung
NCI/ADR-RES ovarian = system: NCI/ADR-RES ovarian
OVCAR-3 ovarian = system: OVCAR-3 ovarian
OVCAR-4 ovarian = system: OVCAR-4 ovarian
OVCAR-5 ovarian = system: OVCAR-5 ovarian
OVCAR-8 ovarian = system: OVCAR-8 ovarian
PC-3 prostate = system: PC-3 prostate
RPMI-8226 leukemia = system: RPMI-8226 leukemia
RXF 393 renal = system: RXF 393 renal
SF-268 CNS = system: SF-268 CNS
SF-295 CNS = system: SF-295 CNS
SF-539 CNS = system: SF-539 CNS
SK-MEL-2 melanoma = system: SK-MEL-2 melanoma
SK-MEL-28 melanoma = system: SK-MEL-28 melanoma
SK-MEL-5 melanoma = system: SK-MEL-5 melanoma
SK-OV-3 ovarian = system: SK-OV-3 ovarian
SN12C renal = system: SN12C renal
SNB-19 CNS = system: SNB-19 CNS
SNB-75 CNS = system: SNB-75 CNS
SR leukemia = system: SR leukemia
SW-620 colon = system: SW-620 colon
T-47D breast = system: T-47D breast
TK-10 renal = system: TK-10 renal
U251 CNS = system: U251 CNS
UACC-257 melanoma = system: UACC-257 melanoma
UACC-62 melanoma = system: UACC-62 melanoma
UO-31 renal = system: UO-31 renal
LOX IMVI melanoma = system: LOX IMVI melanoma

O=S(=O)(c1ccccc1)[C@H]1[C@@H]2O[C@@H]2C[C@@H]1O
TGI (786-0 renal): > 100 µM | TGI (A498 renal): > 100 µM | TGI (A549 NSCLC): > 100 µM | TGI (ACHN renal): > 100 µM | TGI (BT-549 breast): > 100 µM | TGI (CAKI-1 renal): > 100 µM | TGI (CCRF-CEM leukemia): > 100 µM | TGI (COLO 205 colon): > 100 µM | TGI (DU-145 prostate): > 100 µM | TGI (EKVX NSCLC): > 100 µM | TGI (HCC-2998 colon): > 100 µM | TGI (HCT-116 colon): > 100 µM | TGI (HCT-15 colon): > 100 µM | TGI (HL-60(TB) leukemia): > 100 µM | TGI (HOP-62 NSCLC): > 100 µM | TGI (HOP-92 NSCLC): > 100 µM | TGI (HS 578T breast): > 100 µM | TGI (HT29 colon): > 100 µM | TGI (IGROV1 ovarian): > 100 µM | TGI (K-562 leukemia): > 100 µM | TGI (KM12 colon): > 100 µM | TGI (M14 melanoma): > 100 µM | TGI (MALME-3M melanoma): > 100 µM | TGI (MCF7 breast): > 100 µM | TGI (MDA-MB-231 breast): > 100 µM | TGI (MDA-MB-435): > 100 µM | TGI (MDA-N): > 100 µM | TGI (MOLT-4 leukemia): > 100 µM | TGI (NCI-H226 lung): > 100 µM | TGI (NCI-H23 lung): > 100 µM | TGI (NCI-H460 lung): > 100 µM | TGI (NCI-H522 lung): > 100 µM | TGI (NCI/ADR-RES ovarian): > 100 µM | TGI (OVCAR-3 ovarian): > 100 µM | TGI (OVCAR-4 ovarian): > 100 µM | TGI (OVCAR-5 ovarian): > 100 µM | TGI (OVCAR-8 ovarian): > 100 µM | TGI (PC-3 prostate): > 100 µM | TGI (RPMI-8226 leukemia): > 100 µM | TGI (RXF 393 renal): > 100 µM | TGI (SF-268 CNS): > 100 µM | TGI (SF-295 CNS): > 100 µM | TGI (SF-539 CNS): > 100 µM | TGI (SK-MEL-2 melanoma): > 100 µM | TGI (SK-MEL-28 melanoma): > 100 µM | TGI (SK-MEL-5 melanoma): > 100 µM | TGI (SK-OV-3 ovarian): > 100 µM | TGI (SN12C renal): > 100 µM | TGI (SNB-19 CNS): > 100 µM | TGI (SNB-75 CNS): > 100 µM | TGI (SR leukemia): > 100 µM | TGI (SW-620 colon): > 100 µM | TGI (T-47D breast): > 100 µM | TGI (TK-10 renal): > 100 µM | TGI (U251 CNS): > 100 µM | TGI (UACC-257 melanoma): > 100 µM | TGI (UACC-62 melanoma): > 100 µM | TGI (UO-31 renal): > 100 µM

O=C1CC(c2ccccc2Cl)C2(C(=O)NC(=S)NC2=O)C(c2ccccc2Cl)C1 (centres undefined)
TGI (786-0 renal): 51 µM | TGI (A498 renal): 40.4 µM | TGI (A549 NSCLC): 65.5 µM | TGI (ACHN renal): 55.7 µM | TGI (BT-549 breast): 98.2 µM | TGI (CCRF-CEM leukemia): > 100 µM | TGI (COLO 205 colon): > 100 µM | TGI (DU-145 prostate): > 100 µM | TGI (EKVX NSCLC): > 100 µM | TGI (HCC-2998 colon): 52.1 µM | TGI (HCT-116 colon): 41 µM | TGI (HCT-15 colon): 53.6 µM | TGI (HL-60(TB) leukemia): > 100 µM | TGI (HOP-62 NSCLC): > 100 µM | TGI (HOP-92 NSCLC): 32.1 µM | TGI (HS 578T breast): 22.8 µM | TGI (HT29 colon): > 100 µM | TGI (IGROV1 ovarian): 77 µM | TGI (K-562 leukemia): > 100 µM | TGI (KM12 colon): 27.1 µM | TGI (LOX IMVI melanoma): 36.4 µM | TGI (M14 melanoma): 38.9 µM | TGI (MALME-3M melanoma): 31 µM | TGI (MCF7 breast): 40.2 µM | TGI (MDA-MB-231 breast): 72.8 µM | TGI (MDA-MB-435): 34.4 µM | TGI (MDA-N): > 100 µM | TGI (MOLT-4 leukemia): > 100 µM | TGI (NCI-H226 lung): 71.4 µM | TGI (NCI-H23 lung): 37.7 µM | TGI (NCI-H460 lung): 42.9 µM | TGI (NCI-H522 lung): 99.3 µM | TGI (NCI/ADR-RES ovarian): > 100 µM | TGI (OVCAR-3 ovarian): 60 µM | TGI (OVCAR-4 ovarian): > 100 µM | TGI (OVCAR-5 ovarian): > 100 µM | TGI (OVCAR-8 ovarian): 49.6 µM | TGI (PC-3 prostate): 81.8 µM | TGI (RPMI-8226 leukemia): > 100 µM | TGI (RXF 393 renal): 32.8 µM | TGI (SF-268 CNS): 38.3 µM | TGI (SF-295 CNS): 66.6 µM | TGI (SF-539 CNS): > 100 µM | TGI (SK-MEL-2 melanoma): 62 µM | TGI (SK-MEL-28 melanoma): > 100 µM | TGI (SK-MEL-5 melanoma): 58.6 µM | TGI (SK-OV-3 ovarian): > 100 µM | TGI (SN12C renal): 65.8 µM | TGI (SNB-19 CNS): 30.9 µM | TGI (SNB-75 CNS): > 100 µM | TGI (SR leukemia): > 100 µM | TGI (SW-620 colon): > 100 µM | TGI (T-47D breast): 93.5 µM | TGI (TK-10 renal): 0.206 µM | TGI (U251 CNS): 32.8 µM | TGI (UACC-257 melanoma): 30.6 µM | TGI (UACC-62 melanoma): 40.8 µM | TGI (UO-31 renal): > 100 µM

Clc1ccc(-c2noc(CN3CCCCC3)n2)cc1
TGI (786-0 renal): > 100 µM | TGI (A498 renal): > 100 µM | TGI (A549 NSCLC): > 100 µM | TGI (ACHN renal): > 100 µM | TGI (BT-549 breast): > 100 µM | TGI (CAKI-1 renal): > 100 µM | TGI (CCRF-CEM leukemia): > 100 µM | TGI (COLO 205 colon): > 100 µM | TGI (DU-145 prostate): > 100 µM | TGI (EKVX NSCLC): > 100 µM | TGI (HCC-2998 colon): > 100 µM | TGI (HCT-116 colon): > 100 µM | TGI (HCT-15 colon): > 100 µM | TGI (HL-60(TB) leukemia): > 100 µM | TGI (HOP-62 NSCLC): > 100 µM | TGI (HOP-92 NSCLC): > 100 µM | TGI (HS 578T breast): > 100 µM | TGI (HT29 colon): > 100 µM | TGI (IGROV1 ovarian): > 100 µM | TGI (K-562 leukemia): > 100 µM | TGI (KM12 colon): > 100 µM | TGI (M14 melanoma): > 100 µM | TGI (MALME-3M melanoma): > 100 µM | TGI (MCF7 breast): > 100 µM | TGI (MDA-MB-231 breast): > 100 µM | TGI (MDA-MB-435): > 100 µM | TGI (MDA-N): > 100 µM | TGI (MOLT-4 leukemia): > 100 µM | TGI (NCI-H226 lung): > 100 µM | TGI (NCI-H23 lung): > 100 µM | TGI (NCI-H460 lung): > 100 µM | TGI (NCI-H522 lung): > 100 µM | TGI (NCI/ADR-RES ovarian): > 100 µM | TGI (OVCAR-3 ovarian): > 100 µM | TGI (OVCAR-4 ovarian): > 100 µM | TGI (OVCAR-5 ovarian): > 100 µM | TGI (OVCAR-8 ovarian): > 100 µM | TGI (PC-3 prostate): > 100 µM | TGI (RPMI-8226 leukemia): > 100 µM | TGI (RXF 393 renal): > 100 µM | TGI (SF-268 CNS): > 100 µM | TGI (SF-295 CNS): > 100 µM | TGI (SF-539 CNS): > 100 µM | TGI (SK-MEL-2 melanoma): > 100 µM | TGI (SK-MEL-28 melanoma): > 100 µM | TGI (SK-MEL-5 melanoma): > 100 µM | TGI (SK-OV-3 ovarian): > 100 µM | TGI (SN12C renal): > 100 µM | TGI (SNB-19 CNS): > 100 µM | TGI (SNB-75 CNS): > 100 µM | TGI (SR leukemia): > 100 µM | TGI (SW-620 colon): > 100 µM | TGI (T-47D breast): > 100 µM | TGI (TK-10 renal): > 100 µM | TGI (U251 CNS): > 100 µM | TGI (UACC-257 melanoma): > 100 µM | TGI (UACC-62 melanoma): > 100 µM | TGI (UO-31 renal): > 100 µM

Source: PubChem BioAssay (NCI)
